Reference: paper PMC3530200 (Bioorganic & medicinal chemistry letters, 2012)
Values belong to the compound of their own block, whether it stands above or below them. Numbered stars: 1 amine (or outer) side, 2 acyl side, 3 side chain; on linkers, the order of the positions; unused ones are H or OH. Square brackets hold non-standard residues; d marks the D form. Peptide text beside a SMILES is read from it. X2 = O=C([C@H](Cc1cn(CCCCCCCCc2ccccc2)c2ccccc12)N[*:1])[*:2]; X1 = O=C([C@H](Cc1cn(CCCCCCCCc2ccccc2)cn1)N[*:1])[*:2]; pT = C[C@@H](OP(=O)(O)O)[C@H](N)C(=O)O

Biological target: Plk1 PBD (Homo sapiens, UniProt P53350)
Sequence (P53350 whole entry): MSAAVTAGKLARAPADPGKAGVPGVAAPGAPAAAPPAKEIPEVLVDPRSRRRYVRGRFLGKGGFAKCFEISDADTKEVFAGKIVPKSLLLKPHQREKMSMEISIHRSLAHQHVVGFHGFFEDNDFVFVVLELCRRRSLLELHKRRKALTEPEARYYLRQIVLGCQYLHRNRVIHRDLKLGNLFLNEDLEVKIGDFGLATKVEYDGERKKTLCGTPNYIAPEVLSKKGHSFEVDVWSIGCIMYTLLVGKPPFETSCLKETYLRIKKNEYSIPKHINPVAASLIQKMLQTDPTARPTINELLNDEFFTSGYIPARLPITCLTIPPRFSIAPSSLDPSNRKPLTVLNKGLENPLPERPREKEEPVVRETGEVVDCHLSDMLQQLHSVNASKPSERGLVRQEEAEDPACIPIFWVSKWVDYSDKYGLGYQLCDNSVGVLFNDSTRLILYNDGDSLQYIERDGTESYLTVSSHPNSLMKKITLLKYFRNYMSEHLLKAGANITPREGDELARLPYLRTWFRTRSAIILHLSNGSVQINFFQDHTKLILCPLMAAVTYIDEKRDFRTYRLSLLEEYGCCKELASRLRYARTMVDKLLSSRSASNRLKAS
Assay: ELISA-based Plk1 PBD-binding inhibition assay

Compound: CC(=O)N1CCC[C@H]1C(=O)N[C@@H](CC(C)C)C(=O)N[C@@H](Cc1cn(CCCCCCCCc2ccccc2)cn1)C(=O)N[C@@H](CO)C(=O)N[C@H](C(N)=O)[C@@H](C)OP(=O)(O)O [1c] (Ac-PL[X1]S[pT]-NH2; N-terminus and C-terminus assumed)
fold less affinity than 1b (ratio of IC50 relative to 1b): approximately 50 fold

Compound: CC(=O)N1CCC[C@H]1C(=O)N[C@@H](CC(C)C)C(=O)N[C@@H](Cc1cn(CCCCCCCCc2ccccc2)c2ccccc12)C(=O)N[C@@H](CO)C(=O)N[C@H](C(N)=O)[C@@H](C)OP(=O)(O)O [1d] (Ac-PL[X2]S[pT]-NH2; N-terminus and C-terminus assumed)
fold less affinity than 1c (ratio of IC50 relative to 1c): approximately 30 fold

affinity of non-phosphorylated control peptide (even at the highest concentration tested (300 μM)): negligible affinity
Compound: PLHST [reference compound]
